Experimental data taken from ChEMBL document CHEMBL1141550, “N-Alkylated galanthamine derivatives: Potent acetylcholinesterase inhibitors from Leucojum aestivum” (Bioorg Med Chem Lett, 2008).

Target: Acetylcholinesterase (Electrophorus electricus, UniProt O42275)
Experiment: Inhibition of electric eel acetylcholinesterase

Acetylcholinesterase, sequence (O42275 whole entry): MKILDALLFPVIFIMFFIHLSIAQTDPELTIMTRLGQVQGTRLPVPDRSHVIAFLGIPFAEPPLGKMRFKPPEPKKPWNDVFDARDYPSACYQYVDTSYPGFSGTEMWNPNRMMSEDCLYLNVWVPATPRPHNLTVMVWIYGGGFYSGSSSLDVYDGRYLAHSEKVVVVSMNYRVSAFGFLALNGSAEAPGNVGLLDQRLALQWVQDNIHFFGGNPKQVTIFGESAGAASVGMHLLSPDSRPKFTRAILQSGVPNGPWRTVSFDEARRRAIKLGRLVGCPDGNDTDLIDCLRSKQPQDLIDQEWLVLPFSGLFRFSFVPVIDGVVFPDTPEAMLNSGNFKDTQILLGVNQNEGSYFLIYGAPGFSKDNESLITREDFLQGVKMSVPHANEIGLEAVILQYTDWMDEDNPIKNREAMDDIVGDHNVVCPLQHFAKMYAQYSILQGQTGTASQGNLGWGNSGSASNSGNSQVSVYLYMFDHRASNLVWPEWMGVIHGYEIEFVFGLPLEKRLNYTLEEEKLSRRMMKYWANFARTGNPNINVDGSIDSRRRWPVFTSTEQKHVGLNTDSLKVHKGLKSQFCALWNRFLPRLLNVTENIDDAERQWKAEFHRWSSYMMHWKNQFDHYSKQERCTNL

**Q.** With C=C(C)CN1CC[C@@]23C=C[C@H](O)C[C@@H]2Oc2c(OC)ccc(c23)C1 as the compound, how does the IC50 read?
**A.** 160 nM

**Q.** With C=CCN1CC[C@@]23C=C[C@H](O)C[C@@H]2Oc2c(OC)ccc(c23)C1 [N-ALLYLNORGALANTHAMINE] as the compound, how does the IC50 read?
**A.** 180 nM
